According to ChEMBL document CHEMBL3991601, “The target landscape of clinical kinase drugs” (Science, 2017):
Activity calls are given as the source filed them. Cut-off read from the data, not from the text of the source: actives have a measured Kd and inactives only a lower limit.

Molecular target: T1, Aurora kinase A (Homo sapiens, UniProt O14965)
T1 sequence (O14965 whole entry): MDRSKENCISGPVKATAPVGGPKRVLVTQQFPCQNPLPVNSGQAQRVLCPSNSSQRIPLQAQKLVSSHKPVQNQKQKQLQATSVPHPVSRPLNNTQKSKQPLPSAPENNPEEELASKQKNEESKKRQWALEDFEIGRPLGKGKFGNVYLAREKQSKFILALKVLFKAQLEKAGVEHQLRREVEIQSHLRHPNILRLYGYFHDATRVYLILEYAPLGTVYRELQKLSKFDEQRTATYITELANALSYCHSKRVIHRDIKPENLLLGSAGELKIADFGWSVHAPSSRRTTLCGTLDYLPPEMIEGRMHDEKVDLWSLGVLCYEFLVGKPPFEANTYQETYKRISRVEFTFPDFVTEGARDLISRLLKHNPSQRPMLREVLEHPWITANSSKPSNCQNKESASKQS
Note: in the data inactive means no Kd found up to 30 µM.

Structure (SMILES)	Kd
C[C@@H](c1ccc2nccn2c1)n1nnc2ncc(-c3cnn(C)c3)nc21 [SAVOLITINIB]	> 30 µM (inactive)
CN1CCC(CNc2ccc3ncc(-c4cccc(OC(F)(F)F)c4)n3n2)CC1 [SGI-1776]	> 30 µM (inactive)
C[C@@H]1CN(Cc2ccc(F)cc2)[C@@H](C)CN1C(=O)c1cc2c(C(=O)C(=O)N(C)C)cn(C)c2cc1Cl [TALMAPIMOD]	> 30 µM (inactive)
CN1CCC(COc2cnc(-c3cccc(Cn4nc(-c5cccc(C#N)c5)ccc4=O)c3)nc2)CC1 [TEPOTINIB]	> 30 µM (inactive)
O=c1sn(-c2cccc3ccccc23)c(=O)n1Cc1ccccc1 [TIDEGLUSIB]	> 30 µM (inactive)
CC(=O)Nc1cccc(-n2c(=O)n(C3CC3)c(=O)c3c(Nc4ccc(I)cc4F)n(C)c(=O)c(C)c32)c1 [TRAMETINIB]	> 30 µM (inactive)
CN1N=C(N)c2cn([C@@H]3O[C@H](COP(=O)(O)O)[C@@H](O)[C@H]3O)c3ncnc1c23 [TRICIRIBINE PHOSPHATE]	> 30 µM (inactive)
CC(C)Nc1cc(-c2c[nH]c(C(=O)N[C@H](CO)c3cccc(Cl)c3)c2)c(Cl)cn1 [ULIXERTINIB]	> 30 µM (inactive)
CCCS(=O)(=O)Nc1ccc(F)c(C(=O)c2c[nH]c3ncc(-c4ccc(Cl)cc4)cc23)c1F [VEMURAFENIB]	> 30 µM (inactive)
CC[C@@H]1C(=O)N(C)c2cnc(Nc3ccc(C(=O)N[C@H]4CC[C@H](N5CCN(CC6CC6)CC5)CC4)cc3OC)nc2N1C(C)C [VOLASERTIB]	> 30 µM (inactive)
CCn1c(=O)c(-c2cc[nH]n2)cc2c(C)nc(N)nc21 [VOXTALISIB]	> 30 µM (inactive)
O=C(Nc1ccc(-c2ccnc(Nc3ccc(N4CCOCC4)cc3)n2)cc1)C1CCCN1 (stereo not drawn) [XL-019]	> 30 µM (inactive)

Molecular target: Serine/threonine-protein kinase SIK2 (Homo sapiens, UniProt Q9H0K1)
Sequence (Q9H0K1 whole entry): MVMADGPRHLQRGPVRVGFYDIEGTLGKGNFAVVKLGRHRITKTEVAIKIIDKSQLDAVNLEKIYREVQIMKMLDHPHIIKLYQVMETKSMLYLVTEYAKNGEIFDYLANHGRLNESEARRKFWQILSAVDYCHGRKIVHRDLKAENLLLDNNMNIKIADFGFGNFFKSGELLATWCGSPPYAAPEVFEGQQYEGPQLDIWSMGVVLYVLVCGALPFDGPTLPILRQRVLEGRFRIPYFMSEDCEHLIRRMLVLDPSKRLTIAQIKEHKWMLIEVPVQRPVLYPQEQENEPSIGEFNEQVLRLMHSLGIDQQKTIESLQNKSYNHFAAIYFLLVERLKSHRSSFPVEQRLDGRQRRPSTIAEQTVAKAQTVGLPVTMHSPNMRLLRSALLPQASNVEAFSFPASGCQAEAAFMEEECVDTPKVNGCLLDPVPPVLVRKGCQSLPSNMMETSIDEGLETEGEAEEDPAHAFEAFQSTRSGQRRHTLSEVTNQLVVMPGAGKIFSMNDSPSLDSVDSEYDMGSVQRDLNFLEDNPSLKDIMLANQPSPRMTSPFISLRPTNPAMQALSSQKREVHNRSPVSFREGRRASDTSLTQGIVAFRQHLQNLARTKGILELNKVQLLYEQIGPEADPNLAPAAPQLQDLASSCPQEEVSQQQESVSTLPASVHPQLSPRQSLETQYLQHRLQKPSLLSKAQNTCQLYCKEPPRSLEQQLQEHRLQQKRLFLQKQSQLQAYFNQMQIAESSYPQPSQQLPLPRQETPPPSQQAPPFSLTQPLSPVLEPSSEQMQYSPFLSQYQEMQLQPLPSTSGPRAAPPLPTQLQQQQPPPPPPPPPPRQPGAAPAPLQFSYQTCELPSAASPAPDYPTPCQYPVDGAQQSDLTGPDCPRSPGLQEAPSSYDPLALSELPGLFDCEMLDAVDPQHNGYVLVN

Structure (SMILES)	Kd
C[C@@H](c1ccc2nccn2c1)n1nnc2ncc(-c3cnn(C)c3)nc21 [SAVOLITINIB]	> 30 µM (inactive)
CN1CCC(CNc2ccc3ncc(-c4cccc(OC(F)(F)F)c4)n3n2)CC1 [SGI-1776]	6.12 µM (active)
C[C@@H]1CN(Cc2ccc(F)cc2)[C@@H](C)CN1C(=O)c1cc2c(C(=O)C(=O)N(C)C)cn(C)c2cc1Cl [TALMAPIMOD]	> 30 µM (inactive)
CN1CCC(COc2cnc(-c3cccc(Cn4nc(-c5cccc(C#N)c5)ccc4=O)c3)nc2)CC1 [TEPOTINIB]	> 30 µM (inactive)
O=c1sn(-c2cccc3ccccc23)c(=O)n1Cc1ccccc1 [TIDEGLUSIB]	> 30 µM (inactive)
CC(=O)Nc1cccc(-n2c(=O)n(C3CC3)c(=O)c3c(Nc4ccc(I)cc4F)n(C)c(=O)c(C)c32)c1 [TRAMETINIB]	> 30 µM (inactive)
CN1N=C(N)c2cn([C@@H]3O[C@H](COP(=O)(O)O)[C@@H](O)[C@H]3O)c3ncnc1c23 [TRICIRIBINE PHOSPHATE]	> 30 µM (inactive)
CC(C)Nc1cc(-c2c[nH]c(C(=O)N[C@H](CO)c3cccc(Cl)c3)c2)c(Cl)cn1 [ULIXERTINIB]	> 30 µM (inactive)
CCCS(=O)(=O)Nc1ccc(F)c(C(=O)c2c[nH]c3ncc(-c4ccc(Cl)cc4)cc23)c1F [VEMURAFENIB]	> 30 µM (inactive)
CC[C@@H]1C(=O)N(C)c2cnc(Nc3ccc(C(=O)N[C@H]4CC[C@H](N5CCN(CC6CC6)CC5)CC4)cc3OC)nc2N1C(C)C [VOLASERTIB]	> 30 µM (inactive)
CCn1c(=O)c(-c2cc[nH]n2)cc2c(C)nc(N)nc21 [VOXTALISIB]	> 30 µM (inactive)
O=C(Nc1ccc(-c2ccnc(Nc3ccc(N4CCOCC4)cc3)n2)cc1)C1CCCN1 (stereo not drawn) [XL-019]	0.3 µM (active)

Molecular target: T2, Ephrin type-B receptor 4 (Homo sapiens, UniProt P54760)
T2 sequence (P54760 whole entry): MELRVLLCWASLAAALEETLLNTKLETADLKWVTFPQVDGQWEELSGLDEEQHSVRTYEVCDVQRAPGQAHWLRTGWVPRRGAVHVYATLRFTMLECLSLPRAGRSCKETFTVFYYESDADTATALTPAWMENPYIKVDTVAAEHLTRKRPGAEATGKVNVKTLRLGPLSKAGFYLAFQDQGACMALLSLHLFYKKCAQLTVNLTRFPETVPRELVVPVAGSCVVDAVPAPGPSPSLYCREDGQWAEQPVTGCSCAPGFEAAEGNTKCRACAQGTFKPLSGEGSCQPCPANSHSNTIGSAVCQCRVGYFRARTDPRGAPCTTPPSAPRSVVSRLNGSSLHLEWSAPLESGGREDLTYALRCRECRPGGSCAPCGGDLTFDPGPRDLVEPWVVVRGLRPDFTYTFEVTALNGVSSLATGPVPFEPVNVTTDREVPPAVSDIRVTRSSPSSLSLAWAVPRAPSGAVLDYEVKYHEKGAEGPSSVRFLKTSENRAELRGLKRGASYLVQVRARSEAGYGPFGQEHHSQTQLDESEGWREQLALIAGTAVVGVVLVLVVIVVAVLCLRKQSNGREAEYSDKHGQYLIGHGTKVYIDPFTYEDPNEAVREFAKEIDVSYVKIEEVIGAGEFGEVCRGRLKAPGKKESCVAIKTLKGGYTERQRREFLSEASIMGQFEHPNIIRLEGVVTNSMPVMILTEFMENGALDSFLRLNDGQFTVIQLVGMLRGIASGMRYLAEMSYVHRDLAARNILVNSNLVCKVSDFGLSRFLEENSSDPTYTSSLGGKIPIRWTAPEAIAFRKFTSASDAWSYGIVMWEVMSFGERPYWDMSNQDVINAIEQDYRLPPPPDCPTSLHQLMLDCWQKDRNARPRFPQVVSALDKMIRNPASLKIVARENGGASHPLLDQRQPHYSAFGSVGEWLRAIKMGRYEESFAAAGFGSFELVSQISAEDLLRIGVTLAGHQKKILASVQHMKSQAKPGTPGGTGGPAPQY

Structure (SMILES)	Kd
C[C@@H](c1ccc2nccn2c1)n1nnc2ncc(-c3cnn(C)c3)nc21 [SAVOLITINIB]	> 30 µM (inactive)
CN1CCC(CNc2ccc3ncc(-c4cccc(OC(F)(F)F)c4)n3n2)CC1 [SGI-1776]	> 30 µM (inactive)
C[C@@H]1CN(Cc2ccc(F)cc2)[C@@H](C)CN1C(=O)c1cc2c(C(=O)C(=O)N(C)C)cn(C)c2cc1Cl [TALMAPIMOD]	> 30 µM (inactive)
CN1CCC(COc2cnc(-c3cccc(Cn4nc(-c5cccc(C#N)c5)ccc4=O)c3)nc2)CC1 [TEPOTINIB]	> 30 µM (inactive)
O=c1sn(-c2cccc3ccccc23)c(=O)n1Cc1ccccc1 [TIDEGLUSIB]	> 30 µM (inactive)
CC(=O)Nc1cccc(-n2c(=O)n(C3CC3)c(=O)c3c(Nc4ccc(I)cc4F)n(C)c(=O)c(C)c32)c1 [TRAMETINIB]	> 30 µM (inactive)
CN1N=C(N)c2cn([C@@H]3O[C@H](COP(=O)(O)O)[C@@H](O)[C@H]3O)c3ncnc1c23 [TRICIRIBINE PHOSPHATE]	> 30 µM (inactive)
CC(C)Nc1cc(-c2c[nH]c(C(=O)N[C@H](CO)c3cccc(Cl)c3)c2)c(Cl)cn1 [ULIXERTINIB]	> 30 µM (inactive)
CCCS(=O)(=O)Nc1ccc(F)c(C(=O)c2c[nH]c3ncc(-c4ccc(Cl)cc4)cc23)c1F [VEMURAFENIB]	> 30 µM (inactive)
CC[C@@H]1C(=O)N(C)c2cnc(Nc3ccc(C(=O)N[C@H]4CC[C@H](N5CCN(CC6CC6)CC5)CC4)cc3OC)nc2N1C(C)C [VOLASERTIB]	> 30 µM (inactive)
CCn1c(=O)c(-c2cc[nH]n2)cc2c(C)nc(N)nc21 [VOXTALISIB]	> 30 µM (inactive)
O=C(Nc1ccc(-c2ccnc(Nc3ccc(N4CCOCC4)cc3)n2)cc1)C1CCCN1 (stereo not drawn) [XL-019]	> 30 µM (inactive)

Molecular target: T3, Serine/threonine-protein kinase D2 (Homo sapiens, UniProt Q9BZL6)
T3 sequence (Q9BZL6 whole entry): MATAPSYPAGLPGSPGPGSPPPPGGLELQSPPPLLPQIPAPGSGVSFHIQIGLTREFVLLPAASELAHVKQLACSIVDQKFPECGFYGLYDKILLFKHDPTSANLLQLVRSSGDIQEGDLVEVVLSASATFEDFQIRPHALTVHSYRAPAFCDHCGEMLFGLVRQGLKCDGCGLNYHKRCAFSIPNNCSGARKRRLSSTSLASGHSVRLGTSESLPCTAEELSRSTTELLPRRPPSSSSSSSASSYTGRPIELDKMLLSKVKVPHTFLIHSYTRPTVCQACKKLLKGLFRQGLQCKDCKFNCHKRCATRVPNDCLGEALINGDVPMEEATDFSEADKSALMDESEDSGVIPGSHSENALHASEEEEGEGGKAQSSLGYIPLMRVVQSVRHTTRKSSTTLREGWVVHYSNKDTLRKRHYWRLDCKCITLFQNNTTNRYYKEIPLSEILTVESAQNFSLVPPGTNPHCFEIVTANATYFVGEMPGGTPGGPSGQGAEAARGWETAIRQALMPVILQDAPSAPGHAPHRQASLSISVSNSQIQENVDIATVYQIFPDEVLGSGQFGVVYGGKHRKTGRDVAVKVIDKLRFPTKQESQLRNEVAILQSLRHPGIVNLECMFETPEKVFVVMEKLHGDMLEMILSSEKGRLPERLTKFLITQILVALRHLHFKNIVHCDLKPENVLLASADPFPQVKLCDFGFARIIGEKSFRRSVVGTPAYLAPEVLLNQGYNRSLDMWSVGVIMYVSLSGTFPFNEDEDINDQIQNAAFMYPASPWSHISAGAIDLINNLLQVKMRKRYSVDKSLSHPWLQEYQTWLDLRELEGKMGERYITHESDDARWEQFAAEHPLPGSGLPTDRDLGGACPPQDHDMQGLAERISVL

Structure (SMILES)	Kd
C[C@@H](c1ccc2nccn2c1)n1nnc2ncc(-c3cnn(C)c3)nc21 [SAVOLITINIB]	> 30 µM (inactive)
CN1CCC(CNc2ccc3ncc(-c4cccc(OC(F)(F)F)c4)n3n2)CC1 [SGI-1776]	> 30 µM (inactive)
C[C@@H]1CN(Cc2ccc(F)cc2)[C@@H](C)CN1C(=O)c1cc2c(C(=O)C(=O)N(C)C)cn(C)c2cc1Cl [TALMAPIMOD]	> 30 µM (inactive)
CN1CCC(COc2cnc(-c3cccc(Cn4nc(-c5cccc(C#N)c5)ccc4=O)c3)nc2)CC1 [TEPOTINIB]	> 30 µM (inactive)
O=c1sn(-c2cccc3ccccc23)c(=O)n1Cc1ccccc1 [TIDEGLUSIB]	> 30 µM (inactive)
CC(=O)Nc1cccc(-n2c(=O)n(C3CC3)c(=O)c3c(Nc4ccc(I)cc4F)n(C)c(=O)c(C)c32)c1 [TRAMETINIB]	> 30 µM (inactive)
CN1N=C(N)c2cn([C@@H]3O[C@H](COP(=O)(O)O)[C@@H](O)[C@H]3O)c3ncnc1c23 [TRICIRIBINE PHOSPHATE]	> 30 µM (inactive)
CC(C)Nc1cc(-c2c[nH]c(C(=O)N[C@H](CO)c3cccc(Cl)c3)c2)c(Cl)cn1 [ULIXERTINIB]	6.34 µM (active)
CCCS(=O)(=O)Nc1ccc(F)c(C(=O)c2c[nH]c3ncc(-c4ccc(Cl)cc4)cc23)c1F [VEMURAFENIB]	> 30 µM (inactive)
CC[C@@H]1C(=O)N(C)c2cnc(Nc3ccc(C(=O)N[C@H]4CC[C@H](N5CCN(CC6CC6)CC5)CC4)cc3OC)nc2N1C(C)C [VOLASERTIB]	> 30 µM (inactive)
CCn1c(=O)c(-c2cc[nH]n2)cc2c(C)nc(N)nc21 [VOXTALISIB]	> 30 µM (inactive)
O=C(Nc1ccc(-c2ccnc(Nc3ccc(N4CCOCC4)cc3)n2)cc1)C1CCCN1 (stereo not drawn) [XL-019]	66.9 µM (active)
